In patent publication EP4745134A1 (Jiangsu Yahong Meditech Co., Ltd., priority 2023, dated 2025):

How the values were obtained:
HCT116-WT cells = experiment: Inhibitory activity against cell proliferation (CellTiter Glo, 6 days), HCT116-WT; format: cell-based; conditions: 144 h, HCT116-WT cells, 6 days, CellTiter Glo; read-out: HCT116-WT IC50
In short: (§1)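 HCT116 wild-type or MTAP-knockout cells (250/well, McCoy's 5A + 10% FBS) treated after overnight culture with 8-point 4-fold dilutions from 10000 nM for 6 days at 37 °C. Viability read by CellTiter Glo luminescence on day 7; IC50 calculated against DMSO controls.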

HCT116 MTAP KO cells = experiment: Inhibitory activity against cell proliferation (CellTiter Glo, 6 days), HCT116 MTAP KO; format: cell-based; conditions: for IC50: Homo sapiens, HCT-116, 144 h, HCT116 MTAP KO cells, 6 days, CellTiter Glo, read-out: HCT116 MTAP KO IC50; for Selectivity HCT 116-WT/ HCT116 MTAP KO: ratio of IC50 HCT116-WT / HCT116 MTAP KO
In short: as §1

PRMT5-MTA = PRMT5-MTA (Homo sapiens, UniProt O14744); experiment: Enzymatic inhibitory activity against PRMT5-MTA (AlphaScreen); format: biochemical; conditions: read-out: IC50
Sequence of PRMT5-MTA (O14744 whole entry): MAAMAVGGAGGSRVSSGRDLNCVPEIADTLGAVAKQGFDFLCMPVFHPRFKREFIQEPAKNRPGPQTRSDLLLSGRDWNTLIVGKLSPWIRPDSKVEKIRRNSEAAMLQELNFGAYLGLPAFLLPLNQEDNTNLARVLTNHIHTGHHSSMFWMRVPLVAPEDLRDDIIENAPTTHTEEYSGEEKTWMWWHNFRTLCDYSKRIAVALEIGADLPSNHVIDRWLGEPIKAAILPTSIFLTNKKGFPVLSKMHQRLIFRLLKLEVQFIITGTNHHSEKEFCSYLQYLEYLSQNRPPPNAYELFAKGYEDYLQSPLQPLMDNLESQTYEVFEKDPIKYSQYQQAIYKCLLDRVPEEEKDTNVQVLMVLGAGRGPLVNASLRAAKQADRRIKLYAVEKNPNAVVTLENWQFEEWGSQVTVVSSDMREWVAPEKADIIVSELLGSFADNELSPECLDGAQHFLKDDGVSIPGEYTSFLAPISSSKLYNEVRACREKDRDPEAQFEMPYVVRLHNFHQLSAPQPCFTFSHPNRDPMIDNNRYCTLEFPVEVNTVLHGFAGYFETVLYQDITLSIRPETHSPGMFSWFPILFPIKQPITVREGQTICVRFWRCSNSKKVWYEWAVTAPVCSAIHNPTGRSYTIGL
Sequence of PRMT5-MTA (Q9BQA1 whole entry partner): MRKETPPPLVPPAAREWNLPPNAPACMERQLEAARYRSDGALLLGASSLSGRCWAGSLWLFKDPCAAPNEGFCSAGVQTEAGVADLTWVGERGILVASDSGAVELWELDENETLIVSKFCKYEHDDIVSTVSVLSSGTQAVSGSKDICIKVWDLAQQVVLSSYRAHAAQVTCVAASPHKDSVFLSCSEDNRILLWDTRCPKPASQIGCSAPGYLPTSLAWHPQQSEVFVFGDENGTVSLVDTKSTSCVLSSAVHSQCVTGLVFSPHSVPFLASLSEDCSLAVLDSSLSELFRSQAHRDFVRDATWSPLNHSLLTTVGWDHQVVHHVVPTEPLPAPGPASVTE
In short: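 PRMT5/[…] (1 nM) was preincubated for 30 min at room temperature with 1 µM […] and 2.5 µM SAM, then exposed to compound (10-point, 3-fold from 1000 nM) for 15 min at 23 °C. Histone H4 substrate (5 nM) was added and reacted for 45 min at 23 °C. Symmetric dimethyl-R3 H4 was detected by AlphaScreen and IC50 calculated.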

Compound | IC50 (HCT116-WT cells) | IC50 (HCT116 MTAP KO cells) | Selectivity HCT 116-WT/ HCT116 MTAP KO (HCT116 MTAP KO cells) | IC50 (PRMT5-MTA)
Cc1cc2cc(C(=O)N(Cc3ccc(C(F)(F)F)cn3)N(C)c3nccc4ncccc34)ccc2nc1N [Example 108, 2-amino-N',3-dimethyl-N'-(1,6-naphthyridin-5-yl)-N-((5-(trifluoromethyl)pyridin-2-yl)methyl)quinoline-6-carbohydrazide] | 3420 nM | 141 nM | 24.26 | 1.9 nM
Cc1cc2cc(C(=O)N(Cc3ccc(C(F)(F)F)cn3)N(C)c3ncc4ccccc4n3)ccc2nc1N [Example 109, 2-amino-N',3-dimethyl-N'-(quinazolin-2-yl)-N-((5-(trifluoromethyl)pyridin-2-yl)methyl)quinoline-6-carbohydrazide] | 1070 nM | 74 nM | 14.41 | 1.2 nM
Cc1cc2cc(C(=O)N(Cc3ccc(C(F)(F)F)cn3)N(C)c3nccc(C#N)n3)ccc2nc1N [Example 110, 2-amino-N'-(4-cyanopyrimidin-2-yl)-N',3-dimethyl-N-((5-(trifluoromethyl)pyridin-2-yl)methyl)quinoline-6-carbohydrazide] | 2700 nM | 172 nM | 15.71 | 2.5 nM
Cc1cc2cc(C(=O)N(Cc3ccc(C(F)(F)F)cn3)N(C)c3ccccc3F)ccc2nc1N [Example 111, 2-amino-N'-(2-fluorophenyl)-N',3-dimethyl-N-((5-(trifluoromethyl)pyridin-2-yl)methyl)quinoline-6-carbohydrazide] | 1040 nM | 38 nM | 27.47 | 1.7 nM
Cc1cc2nc(N)c3cnn(C)c3c2cc1C(=O)N(C)N1CCc2cccnc21 [Example 112, 4-amino-N-(2,3-dihydro-1H-pyrrolo[2,3-b]pyridin-1-yl)-N,1,7-trimethyl-1H-pyrazolo[4,3-c]quinoline-8-carboxamide] | > 10000 nM | 360 nM |  | 1.9 nM
Cc1cc2cc(C(=O)N(Cc3ccc(C(F)(F)F)cn3)N(C)c3ncccc3C(F)F)ccc2nc1N [Example 117, 2-amino-N'-(3-(difluoromethyl)pyridin-2-yl)-N',3-dimethyl-N-((5-(trifluoromethyl)pyridin-2-yl)methyl)quinoline-6-carbohydrazide] | 1250 nM | 89 nM | 14.00 | 1.8 nM
Cc1cc2cc(C(=O)N(Cc3ccc(C(F)(F)F)cn3)N(C)c3ncc4cc[nH]c4n3)ccc2nc1N [Example 119, 2-amino-N',3-dimethyl-N'-(7H-pyrrolo[2,3-d]pyrimidin-2-yl)-N-((5-(trifluoromethyl)pyridin-2-yl)methyl)quinoline-6-carbohydrazide] | 1810 nM | 90 nM | 20.13 | 2.3 nM
Cc1cc2cc(C(=O)N(Cc3cc4cccc(F)c4cn3)N(C)c3ncccn3)ccc2nc1N [Example 123, 2-amino-N-((8-fluoroisoquinolin-3-yl)methyl)-N',3-dimethyl-N'-(pyrimidin-2-yl)quinoline-6-carbohydrazide] | 1900 nM | 88 nM | 21.61 | 2.9 nM
Cc1cc2cc(C(=O)N(Cc3ccc(C(F)(F)F)nn3)N(C)c3ncccn3)ccc2nc1N [Example 124, 2-amino-N',3-dimethyl-N'-(pyrimidin-2-yl)-N-((6-(trifluoromethyl)pyridazin-3-yl)methyl)quinoline-6-carbohydrazide] | 6450 nM | 220 nM | 29.33 | 5.4 nM
Cc1cc2cc(C(=O)N(Cc3ccc(C(F)(F)F)cn3)N(C)c3c(F)ccc4nccnc34)ccc2nc1N [Example 125, 2-amino-N'-(6-fluoroquinoxalin-5-yl)-N',3-dimethyl-N-((5-(trifluoromethyl)pyridin-2-yl)methyl)quinoline-6-carbohydrazide] | 2310 nM | 84 nM | 27.54 | 1.7 nM
Cc1cc2cc(C(=O)N(Cc3ccc(C(F)(F)F)cn3)N(C)c3ncc4ccn(C)c4n3)ccc2nc1N [Example 126, 2-amino-N',3-dimethyl-N'-(7-methyl-7H-pyrrolo[2,3-d]pyrimidin-2-yl)-N-((5-(trifluoromethyl)pyridin-2-yl)methyl)quinoline-6-carbohydrazide] | 1480 nM | 90 nM | 16.41 | 1.3 nM
C=Cc1cccnc1N(C)N(Cc1ccc(C(F)(F)F)cn1)C(=O)c1ccc2nc(N)c(C)cc2c1 [Example 133, 2-amino-N',3-dimethyl-N-((5-(trifluoromethyl)pyridin-2-yl)methyl)-N'-(3-vinylpyridin-2-yl)quinoline-6-carbohydrazide] | 3400 nM | 312 nM | 10.89 | 3.6 nM
C=C(C)c1cccnc1N(C)N(Cc1ccc(C(F)(F)F)cn1)C(=O)c1ccc2nc(N)c(C)cc2c1 [Example 135, 2-amino-N',3-dimethyl-N'-(3-(prop-1-en-2-yl)pyridin-2-yl)-N-((5-(trifluoromethyl)pyridin-2-yl)methyl)quinoline-6-carbohy drazide] | 2080 nM | 163 nM | 12.75 | 3.2 nM
COc1nc(C)ccc1-c1ccc(CN(C(=O)c2ccc3nc(N)c(C)cc3c2)N(C)c2ncccn2)nc1 [Example 137, 2-amino-N-((2'-methoxy-6'-methyl-[3,3'-bipyridine]-6-yl)methyl)-N',3-dimethyl-N'-(pyrimidin-2-yl)quinoline-6-carbohydrazide] | 1990 nM | 110 nM | 18.07 | 1.3 nM
Cc1cc2cc(C(=O)N(Cc3ccc(-c4ccc(C#N)nc4)cn3)N(C)c3ncccn3)ccc2nc1N [Example 139, 2-amino-N-((6'-cyano-[3,3'-bipyridine]-6-yl)methyl)-N',3-dimethyl-N'-(pyrimidin-2-yl)quinoline-6-carbohydrazide] | 281 nM | 22 nM | 12.77 | 3 nM
Cc1cc2cc(C(=O)N(Cc3ccc(-c4ccc(N5CCN(C)CC5)nc4)cn3)N(C)c3ncccn3)ccc2nc1N [Example 140, 2-amino-N',3-dimethyl-N-((6'-(4-methylpiperazin-1-yl)-[3,3'-bipyridine]-6-yl)methyl)-N'-(pyrimidin-2-yl)quinoline-6-carbohydrazide] | 2060 nM | 46 nM | 44.67 | 1.6 nM
Cc1cc2cc(C(=O)N(Cc3ccc(-c4ccccn4)cn3)N(C)c3ncccn3)ccc2nc1N [Example 141, N-([2,3'-bipyridine]-6'-ylmethyl)-2-amino -N',3-dimethyl-N'-(pyrimidin-2-yl)quino line-6-carbohydrazide] | 2030 nM | 76 nM | 26.76 | 2.3 nM
Cc1cc2cc(C(=O)N(Cc3ccc(-c4cc[nH]n4)cn3)N(C)c3ncccn3)ccc2nc1N [Example 142, N-((5-(1H-pyrazol-3-yl)pyridin-2-yl)methyl)-2-amino-N',3-dimethyl-N'-(pyrimidin-2-yl)quinoline-6-carbohydrazide] | 3910 nM | 201 nM | 19.43 | 4.1 nM
Cc1cc2cc(C(=O)N(Cc3ccc(-c4ccc(N)nc4)cn3)N(C)c3ncccn3)ccc2nc1N [Example 144, 2-amino-N-((6'-amino-[3,3'-bipyridine]-6-yl)methyl)-N',3-dimethyl-N'-(pyrimidin-2-yl)quinoline-6-carbohydrazide] | 616 nM | 26 nM | 23.69 | 1.5 nM
Cc1cc2cc(C(=O)N(Cc3ccc(-c4cnc(N5CCN(C)CC5)nc4)cn3)N(C)c3ncccn3)ccc2nc1N [Example 147, 2-amino-N',3-dimethyl-N-((5-(2-(4-methylpiperazin-1-yl)pyrimidin-5-yl)pyridin-2-yl)methyl)-N'-(pyrimidin-2-yl)quinoline-6-carbohydrazide] | 1380 nM | 46 nM | 29.93 | 2.2 nM
Cc1cc2cc(C(=O)N(Cc3ccc(-c4ccn(C)c4)cn3)N(C)c3ncccn3)ccc2nc1N [Example 148, 2-amino-N',3-dimethyl-N-((5-(1-methyl-1H-pyrrol-3-yl)pyridin-2-yl)methyl)-N'-(pyrimidin-2-yl)quinoline-6-carbohydrazide] | 3090 nM | 179 nM | 17.25 | 1 nM
Cc1cc2cc(C(=O)N(Cc3ccc(-c4cnn(C5CCC5)c4)cn3)N(C)c3ncccn3)ccc2nc1N [Example 149, 2-amino-N-((5-(1-cyclobutyl-1H-pyrazol-4-yl)pyridin-2-yl)methyl)-N',3-dimethyl-N'-(pyrimidin-2-yl)quinoline-6-carbohydr azide] | 1590 nM | 99 nM | 16.02 | 2.9 nM
Cc1ncc(-c2ccc(CN(C(=O)c3ccc4nc(N)c(C)cc4c3)N(C)c3ncccn3)nc2)s1 [Example 151, 2-amino-N',3-dimethyl-N-((5-(2-methylthiazol-5-yl)pyridin-2-yl)methyl)-N'-(pyrimidin-2-yl)quinoline-6-carbohydrazide] | 601 nM | 19 nM | 31.63 | 6.4 nM
